Results reported in patent US20220401469A1, “PROCESS FOR PREPARATION OF BIOLOGICALLY ACTIVE COPOLYMER” (RECCE PHARMACEUTICALS LTD, priority 2020, published 2022).
Several values for one entry are separate records, joined by “and”; a condition that tells them apart may be missing. Equal values may be shown once. Marks after values point to notes of the source that are not given here.

How the values were obtained:
E. coli [ATCC 25922] = experiment: Ascending Urinary Tract Infection Rat Model (kidneys, bladder); assay type: in vivo
[1] = test system: Neisseria gonorrhoea (ATCC700825); settings: in vivo, 50 mg/kg
[2] = test system: Neisseria gonorrhoea (ATCC700825); experiment: Mouse vaginal infection model; settings: mice; Meropenem IV bolus 50 mg/kg for seven days; p<0.05
[3] = test system: Influenza A virus (H1N1) Strain: A/NWS/33; experiment: Mouse influenza model (C57BL/6), body weights and lung viral titers; assay type: in vivo
[4] = test system: Staphylococcus aureus [ATCC 43300]; experiment: Burn Wound Infection Model in rats; assay type: in vivo
[5] = Meropenem 30 mg/kg single dose i.v. bolus
[6] = Meropenem 30 mg/kg single dose i.v. bolus, individual animals
[7] = Meropenem single IV bolus 30 mg/kg, E1 50 and 500 mg/kg i.v. 24 h infusion

## C[C@@H](O)[C@H]1C(=O)N2C(C(=O)O)=C(S[C@@H]3CN[C@H](C(=O)N(C)C)C3)[C@H](C)[C@H]12 [Meropenem]
E. coli [ATCC 25922]; [5]
  Mean Log10CFU/g Bladder change (wrt 4 h PI control: 6.54 Log10CFU/g Bladder): −1.11 Log10CFU/g
  Mean Log10CFU/g kidney change (wrt 4 h PI control: 4.73 Log10CFU/g kidneys): −1.27 Log10CFU/g
  Mean ± SD (Log10 CFU/g Bladder): 5.43 ± 0.36 Log10 CFU/g Bladder
  Mean ± SD (Log10 CFU/g kidneys): 3.46 ± 0.19 Log10 CFU/g kidneys
E. coli [ATCC 25922]; [6]
  Log10 CFU/g Bladder: 5.04 Log10 CFU/g and 5.24 Log10 CFU/g and 5.91 Log10 CFU/g and 5.25 Log10 CFU/g and 5.71 Log10 CFU/g
  Log 10 CFU/g Kidneys Left kidney: 3.46 Log 10 CFU/g (2×) and 3.61 Log 10 CFU/g and 3.41 Log 10 CFU/g and 3.37 Log 10 CFU/g
  Log 10 CFU/g Kidneys Right kidney: 3.36 Log 10 CFU/g and 3.69 Log 10 CFU/g and 3.80 Log 10 CFU/g and 3.16 Log 10 CFU/g and 3.31 Log 10 CFU/g
E. coli [ATCC 25922]; [7]
  antibacterial activity in kidneys compared to vehicle control: significant bactericidal activity in kidneys
  antibacterial activity in the bladder compared to vehicle control: significant bactericidal activity in the bladder
[1]
  Clinical signs: N
[2]
  bactericidal activity in vaginal load compared to vehicle control: significant bactericidal activity in vaginal load

## NC(=O)c1ncn([C@@H]2O[C@H](CO)[C@@H](O)[C@H]2O)n1 [Ribavirin]
[3]; Ribavarin, E1 25, 50 and 100 mg/kg, CE3 100, 500 and 1000 mg/kg, p<0.05
  body weights compared to vehicle control on day 4: significantly higher body weights
[3]; Ribavirin 66 mg/kg IP, E1 25-100 mg/kg, CE3 100-1000 mg/kg iv bid
  viral growth rate and viral load in the lungs compared to vehicle control: significantly reduced the viral growth rate and viral load in the lungs
[3]; Ribavirin, E1 25, 50 and 100 mg/kg, CE3 100, 500 and 1000 mg/kg, p<0.05
  viral titres compared to vehicle control on day 4: significantly lower viral titres
[3]; mice infected with H1N1, Ribavarin 66 mg/kg i.p., Day 0
  Body weights Mean: 23.92 g
[3]; mice infected with H1N1, Ribavarin 66 mg/kg i.p., Day 1
  Body weights Mean: 23.50 g
[3]; mice infected with H1N1, Ribavarin 66 mg/kg i.p., Day 2
  Body weights Mean: 24.22 g
[3]; mice infected with H1N1, Ribavarin 66 mg/kg i.p., Day 4
  Body weights Mean (g): 24.67* g
[3]; mice infected with H1N1, Ribavarin 66 mg/kg i.p., Day 6
  Body weights Mean: 24.70 g
[3]; mice infected with H1N1, Ribavirin 66 mg/kg once daily IP
  body weight through the study: no significant decrease in body weight

## Saframycin
[4]; E1, CE3 100 μl (19.15 mg/ml) topical 3 days, Saframycin 30 mg topical b.i.d 3 days
  bacterial load on day 4 compared to day 1: did not show significant efficacy on day 4 when compared to day 1
[4]; E1, CE3 100 μl (19.15 mg/ml) topical 3 days, Safromycin 30 mg topical b.i.d 3 days
  % wound contraction on Day 4 PI (Mean ± SD): 2.48 ± 0.30%
[4]; E1, CE3 100 μl (19.15 mg/ml) topical 3 days, Safromycin 30 mg topical b.i.d 3 days, p<0.05
  wound reduction on day 4 compared to vehicle control: significant reduction wound on day 4
[4]; Mean ± SD, E1, CE3 100 μl (19.15 mg/ml) topical u.i.d 3 days, Safromycin 30 mg topical b.i.d 3 days, Day 1 PI
  Bacterial Load on skin post treatment Day 1 PI: 5.84 ± 0.35 Logic CFU/Swab
[4]; Mean ± SD, E1, CE3 100 μl (19.15 mg/ml) topical u.i.d 3 days, Safromycin 30 mg topical b.i.d 3 days, Day 4 PI
  Bacterial Load on skin post treatment Day 4 PI: 4.87 ± 0.63 Logic CFU/Swab
